Measured values taken from patent US9980943B2, “Methods of treating muscular dystrophy” (BOARD OF REGENTS OF THE NEVADA SYSTEM OF HIGHER EDUCATION, …, priority 2013, dated 2018).

Experiments:
Assay type in all cases: cell-based, mouse
[1] = tested on: α7 integrin (LacZ reporter in α7βgal+/− myoblasts); assay: Myoblast α7+/LacZ integrin FDG assay (Burkin assay in myoblasts, 96-well); conditions: α7+/LacZ myoblasts, 96-well
[2] = tested on: α7 integrin (LacZ reporter in α7+/LacZ myotubes); assay: Myotube α7 integrin FDG assay (Burkin assay in myotubes, 96-well); conditions: myotubes
[3] = tested on: β-galactosidase in CMV-LacZ C2C12 myoblasts; assay: CMV-LacZ secondary screen in C2C12 myoblasts (β-Gal stabilizing assay); conditions: CMV-LacZ C2C12 myoblasts
In short: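 CMV-LacZ C2C12 line (clonal, FDG-screened); myoblasts/myotubes dosed 0.5–40 μM (0.5, 1, 5, 10, 20, 40 μM); n=2 per point; β-gal stabilization read-out.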

[4] = tested on: β-galactosidase in CMV-LacZ C2C12 myotubes; assay: CMV-LacZ secondary screen in C2C12 myotubes (β-Gal stabilizing assay); conditions: C2C12 CMV-LacZ myotubes, fold relative to DMSO
In short: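 β-gal stabilization was measured in C2C12 myoblasts or myotubes stably transfected with a CMV-driven LacZ construct, using the FDG β-gal assay. Compounds were tested in dose-response at 0.5, 1, 5, 10, 20 and 40 μM, with two replicates per point.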

SMILES	Burkin Assay in Myoblasts, signal relative to DMSO ([1]; 0.5 uM)	Burkin Assay in Myoblasts, signal relative to DMSO ([1]; 1 uM)	Burkin Assay in Myoblasts, signal relative to DMSO ([1]; 5 uM)	Burkin Assay in Myoblasts, signal relative to DMSO ([1]; 10 uM)	Burkin Assay in Myoblasts, signal relative to DMSO ([1]; 20 uM)	Burkin Assay in Myoblasts, signal relative to DMSO ([1]; 40 uM)	Burkin Assay in Myotubes, α7 integrin LacZ reporter signal relative to DMSO ([2]; 0.5 uM)	Burkin Assay in Myotubes, α7 integrin LacZ reporter signal relative to DMSO ([2]; 1 uM)	Burkin Assay in Myotubes, α7 integrin LacZ reporter signal relative to DMSO ([2]; 5 uM)	Burkin Assay in Myotubes, α7 integrin LacZ reporter signal relative to DMSO ([2]; 10 uM)	Burkin Assay in Myotubes, α7 integrin LacZ reporter signal relative to DMSO ([2]; 20 uM)	Burkin Assay in Myotubes, α7 integrin LacZ reporter signal relative to DMSO ([2]; 40 uM)	CMV-LACZ in Myoblasts (β-galactosidase activity relative to DMSO) ([3]; 0.5 uM)	CMV-LACZ in Myoblasts (β-galactosidase activity relative to DMSO) ([3]; 1 uM)	CMV-LACZ in Myoblasts (β-galactosidase activity relative to DMSO) ([3]; 5 uM)	CMV-LACZ in Myoblasts (β-galactosidase activity relative to DMSO) ([3]; 10 uM)	CMV-LACZ in Myoblasts (β-galactosidase activity relative to DMSO) ([3]; 20 uM)	CMV-LACZ in Myoblasts (β-galactosidase activity relative to DMSO) ([3]; 40 uM)	CMV-LACZ in Myotubes, signal relative to DMSO ([4]; 0.5 uM)	CMV-LACZ in Myotubes, signal relative to DMSO ([4]; 1 uM)	further results
Cc1nnc(-c2ccc(N3CCOCC3)c([N+](=O)[O-])c2)o1 [MLS001359861-01]	0.9353	0.9376	0.9484	0.9324	0.8725	0.9113	1.095	1.184	0.9088	0.876	1.0337	0.804	0.9444	0.9184	0.9009	0.8064	0.9074	1.0330	0.8978	0.9533	CMV-LACZ in Myotubes, signal relative to DMSO ([4]; 5 uM): 0.9547; CMV-LACZ in Myotubes, signal relative to DMSO ([4]; 10 uM): 1.1230; CMV-LACZ in Myotubes, signal relative to DMSO ([4]; 20 uM): 0.9976; CMV-LACZ in Myotubes, signal relative to DMSO ([4]; 40 uM): 0.9412
Cn1cc(CN(CCO)Cc2cccs2)c(-c2ccccc2F)n1 [MLS000732652-01]	1.176	1.191	0.972	1.2648	1.0346	0.8792	1.092	1.116	1.1938	1.141	0.6797	0.7309	0.6700	0.7744	1.1327	1.1235	0.9374	0.7856	1.1615	0.8859	CMV-LACZ in Myotubes, signal relative to DMSO ([4]; 5 uM): 1.0614; CMV-LACZ in Myotubes, signal relative to DMSO ([4]; 10 uM): 1.0697; CMV-LACZ in Myotubes, signal relative to DMSO ([4]; 20 uM): 0.8518; CMV-LACZ in Myotubes, signal relative to DMSO ([4]; 40 uM): 1.0329
COc1ccc(N=Nc2ccc(N)nc2N)cc1 [MLS000736846-01]	1.218	1.2858	1.07	1.012	1.0406	0.9563	1.131	1.144	1.004	0.9396	0.8776	0.9673	1.1009	1.0386	1.0269	1.1101	1.3459	1.0174	0.8438	0.9714	CMV-LACZ in Myotubes, signal relative to DMSO ([4]; 5 uM): 1.0250; CMV-LACZ in Myotubes, signal relative to DMSO ([4]; 10 uM): 1.1737; CMV-LACZ in Myotubes, signal relative to DMSO ([4]; 20 uM): 1.1000; CMV-LACZ in Myotubes, signal relative to DMSO ([4]; 40 uM): 1.2788
Nc1ncnc(NCc2ccccc2)c1[N+](=O)[O-] [MLS000698826-01]	1.019	1.008	1.246	0.9598	0.9937	1.023	1.008	0.8718	1.08	0.9001	0.9575	0.7844	0.9942	0.9717	0.8824	0.9013	1.2944	1.2519	1.2010	1.0200	CMV-LACZ in Myotubes, signal relative to DMSO ([4]; 5 uM): 1.1232; CMV-LACZ in Myotubes, signal relative to DMSO ([4]; 10 uM): 0.9634; CMV-LACZ in Myotubes, signal relative to DMSO ([4]; 20 uM): 1.0505; CMV-LACZ in Myotubes, signal relative to DMSO ([4]; 40 uM): 1.0789
COc1ccccc1C(=O)Nc1ccnn1C1CCN(C(=O)c2ccoc2)CC1 [MLS001083082-01]	0.9036	0.9516	1.058	1.023	1.014	0.9468	1.035	0.9411	1.07	1.05	0.8987	0.937	0.8591	0.9234	1.0409	1.1713	0.9615	0.8144	0.9615	1.0326	CMV-LACZ in Myotubes, signal relative to DMSO ([4]; 5 uM): 0.9984; CMV-LACZ in Myotubes, signal relative to DMSO ([4]; 10 uM): 0.9776; CMV-LACZ in Myotubes, signal relative to DMSO ([4]; 20 uM): 1.0282; CMV-LACZ in Myotubes, signal relative to DMSO ([4]; 40 uM): 1.1165
